Patent US20160089391A1, “Molecular Targets for Cardiovascular Disease” (Temple University-of the Commonwealth System of Higher …, priority 2014, published 2016)

How the values were obtained:
[1] = molecular target: T1, eNOS (Homo sapiens, UniProt P29474); assay: eNOS activity in intact HAECs (3H-Arg to 3H-citrulline conversion); format: cell-based
T1 construct: endogenous in cells; host or cells: HAECs (human aortic endothelial cells)
T1 sequence (P29474 2-1203 limits assumed): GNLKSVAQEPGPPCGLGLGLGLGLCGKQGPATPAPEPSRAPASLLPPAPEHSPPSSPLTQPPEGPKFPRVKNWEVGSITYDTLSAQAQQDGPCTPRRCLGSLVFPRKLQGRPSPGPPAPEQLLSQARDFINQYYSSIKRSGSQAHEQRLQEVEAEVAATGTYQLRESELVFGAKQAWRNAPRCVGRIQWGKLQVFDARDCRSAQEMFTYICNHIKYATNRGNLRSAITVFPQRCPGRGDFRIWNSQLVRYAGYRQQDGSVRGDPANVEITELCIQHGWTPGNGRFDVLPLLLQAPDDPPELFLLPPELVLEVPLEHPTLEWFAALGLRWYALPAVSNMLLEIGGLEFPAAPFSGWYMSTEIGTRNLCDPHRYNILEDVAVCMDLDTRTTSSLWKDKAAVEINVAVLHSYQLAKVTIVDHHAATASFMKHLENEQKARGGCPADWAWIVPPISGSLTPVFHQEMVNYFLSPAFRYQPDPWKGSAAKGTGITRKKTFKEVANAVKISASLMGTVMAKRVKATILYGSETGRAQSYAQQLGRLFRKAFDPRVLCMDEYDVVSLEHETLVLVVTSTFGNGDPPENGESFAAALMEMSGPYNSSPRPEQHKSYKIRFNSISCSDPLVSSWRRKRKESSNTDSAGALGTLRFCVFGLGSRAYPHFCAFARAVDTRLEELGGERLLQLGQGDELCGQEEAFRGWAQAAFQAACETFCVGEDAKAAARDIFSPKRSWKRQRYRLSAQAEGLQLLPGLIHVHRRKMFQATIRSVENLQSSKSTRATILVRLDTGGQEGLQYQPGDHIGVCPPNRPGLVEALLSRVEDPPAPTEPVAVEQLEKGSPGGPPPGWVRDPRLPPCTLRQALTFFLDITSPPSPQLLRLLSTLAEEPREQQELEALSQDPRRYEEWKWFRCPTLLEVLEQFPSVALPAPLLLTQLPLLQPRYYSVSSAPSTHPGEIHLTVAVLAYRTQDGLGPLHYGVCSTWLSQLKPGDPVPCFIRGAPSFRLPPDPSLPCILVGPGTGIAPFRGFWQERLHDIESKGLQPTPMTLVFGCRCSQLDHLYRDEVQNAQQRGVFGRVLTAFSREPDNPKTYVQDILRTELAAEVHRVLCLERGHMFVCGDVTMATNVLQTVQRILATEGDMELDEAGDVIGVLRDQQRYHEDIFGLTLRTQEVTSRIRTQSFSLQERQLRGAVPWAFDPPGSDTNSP
Description: (§1) (FIG. 6A). Images of NO. Nitric oxide (NO) production in HAECs was measured by staining intact HAECs with NO marker DAF-FM. N^G-nitro-L-arginine methyl ester (L-NAME, 100 μmol/L, Sigma #N5751) was added in the last hour as a negative control. (FIG. 6B). Quantification of NO. (FIG. 6C). eNOS activity. Human aortic endothelial cells (HAECs) were cultured in EC medium which contains 5 mmol/L D-Glucose (D-Glu), and treated with DL-homocysteine (DL-Hcy, 500 μmol/L) and/or (D-Glu, 25 mmol) without or with MDL28170 (MDL) for 48 hrs, CTsiRNA or μ-calpsiRNA for 72 hrs. L-NAME (100 μmol/L) was added in the last hour. NO was measured by staining intact HAECs with NO marker (DAF-FM, 10 μmol/L, Sigma #D2321, 30 mins.). Endothelial nitric oxide synthase (eNOS) activity was assessed by measuring of ^3H-L-arginine conversion to ^3H-citrulline in intact HAECs. n=3, *p<0.05 vs control; †p<0.05 vs DL-Hcy-treated HAECs; ‡p<0.05 vs D-Glu-treated HAECs; #p<0.05 vs DL-Hcy/D-Glu-treated HAECs. DAF-FM, 4-Amino-5-methylamino-2′,7′-difluorescein; CTsiRNA, control siRNA; HG, hyperglycemia; HHcy, hyperhomocysteinemia; μ-calpsiRNA, μ-calpain siRNA.
(§2) HAECs treated with or without DL-Hcy and/or D-Glu for 48 hrs were stained with 4-Amino-5-Methylamino-2′,7′-Difluorofluorescein (DAF-FM). To explore the role of calpain, especially μ-calpain, the DL-Hcy/D-Glu-treated HAECs were also treated with MDL28170 (MDL, 20 μmol/L) and μ-calpain siRNA, respectively. HAECs treated with L-NAME (100 μmol/L) for 1 hr before DAF-FM staining were used as negative controls. eNOS activity in HAECs was determined by measuring the conversion of ^3H-Arg to ^3H-citrulline in intact cells as previous described (Jiang et al., 2005, Arterioscl Throm Vas 25:2515-2521).

[2] = tested on: NO production in HAECs; assay: NO production in HAECs by DAF-FM staining; format: cell-based, human; conditions: for NO generation: HAECs, DL-Hcy 500 μmol/L and/or D-Glu 25 mmol/L for 48 hrs
Description: as §1, §2

[3] = HAECs, DL-Hcy 500 μmol/L and/or D-Glu 25 mmol/L for 48 hrs, relative to control

eNOS activity [1, 3]	Compound	NO generation [2]	eNOS activity ([1]; HHcy/HG (DL-Hcy/D-Glu)-treated HAECs, improved from 35% (MDL) or printed 26% (siRNA), MDL 20 μmol/L 48 hrs, siRNA 72 hrs)	NO production ([2]; HHcy/HG (DL-Hcy/D-Glu)-treated HAECs, improved from 26%, MDL 20 μmol/L 48 hrs, siRNA 72 hrs)
69%	NC(CCS)C(=O)O (racemic) [DL-Hcy, DL-homocysteine]	78 % of the control	–	–
52%	O=C[C@H](O)[C@@H](O)[C@H](O)[C@H](O)CO [D-Glu, D-glucose]	36 % of the control	–	–
–	MDL28170	–	74%	86%
